“Also recorded” adds a separate entry of the source. Where two headings read alike, the source gives them in different places. Bridges are numbered along the chain shown (N, C = ends). Where no end group is shown, it is not given here.
Assays:
[1] = Plasma stability of GLP-1 peptide complex (remaining rate in rat plasma, HPLC/MS); type: in vitro ADME, SD rats; details: for remaining at 8 h, 0.5 μmol/L / remaining at 48 h, 0.5 μmol/L: SD
Description: SD rats were anesthetized with diethyl ether, whole blood was collected and a plasma fraction was separated therefrom.

[2] = target: T1, endogenous GLP-1 receptor (Mus musculus, UniProt O35659); assay: Insulin secretion capacity of GLP-1 peptide complex in MIN 6 cells; type: cell-based; details: for Insulin secretion capacity (% of control): 1000 pM, control = native GLP-1 at 1000 pM;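 for all read-outs here: insulin released into the supernatant of MIN 6 cultures quantified by ELISA, absorbance read at 450 nm with 620 nm reference after substrate addition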
T1 construct: expressing an endogenous GLP-1 receptor; endogenous in cells; host or cells: MIN 6 mouse insulinoma cells (obtained from a person)
T1 sequence (O35659 22-463): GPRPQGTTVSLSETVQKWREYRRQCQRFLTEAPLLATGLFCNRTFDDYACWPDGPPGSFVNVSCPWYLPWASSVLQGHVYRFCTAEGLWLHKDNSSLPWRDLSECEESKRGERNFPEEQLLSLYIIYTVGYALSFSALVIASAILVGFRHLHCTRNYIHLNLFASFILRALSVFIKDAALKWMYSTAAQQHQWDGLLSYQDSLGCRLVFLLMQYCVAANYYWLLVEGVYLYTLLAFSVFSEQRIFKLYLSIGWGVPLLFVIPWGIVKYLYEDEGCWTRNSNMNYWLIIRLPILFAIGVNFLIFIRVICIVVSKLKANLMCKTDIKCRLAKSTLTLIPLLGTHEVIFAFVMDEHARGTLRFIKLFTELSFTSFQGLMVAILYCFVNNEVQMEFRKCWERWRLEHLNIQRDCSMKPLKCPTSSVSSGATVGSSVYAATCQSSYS
Description: MIN 6 was seeded on a multi-plate, which was cultivated at 37° C. for 48 hours. After that, the culture was washed twice with a KRH buffer solution including 2 mM glucose solution (including NaCl 119 mM, KCl 4.74 mM, CaCl2 2.54 mM, MgCl2 1.19 mM, KH2PO4 1.19 mM, 10 mM HEPES buffer solution pH7.3, and 0.1% BSA), and then it was incubated at 37° C. for one hour. […] A supernatant thereof was recovered, and an amount of insulin secreted was measured. The measurement of the insulin was performed in an enzyme-linked immunosorbent assay (ELISA), and an absorbance was measured at 450 nm (a sub-wavelength: 620 nm) after the addition of a substrate.
EC50 values thereof were calculated in the same manner as in Part 2, and the influence on the bioactivity caused by the addition of the partial peptide of the GA module were inspected in detail.
The analysis was performed using the following calculation formula.

[3] = Plasma stability of amylin complex (remaining rate in rat plasma); type: in vitro ADME, SD rats; details: for remaining at 0.5 h, 0.5 μmol/L / remaining at 2 h, 0.5 μmol/L / remaining at 8 h, 0.5 μmol/L: SD
Description: Evaluation was performed in a manner in which after the treatment of the amylin or amylin peptide complex with plasma for a pre-determined time, an amount of change of the amylin peptide (complex) undecomposed was measured by an HPLC/MS.

[4] = rat plasma, 0.5 μmol/L, 37° C., 8 hours, relative to 0 hour = 100%, read-out: Remaining rate in plasma after 8 hours (%)
[5] = rat plasma, 0.5 μmol/L, 37° C., 48 hours, relative to 0 hour = 100%, read-out: Remaining rate in plasma after 48 hours (%)

Compound	remaining at 8 h, 0.5 μmol/L ([1]; rat, plasma)	remaining at 48 h, 0.5 μmol/L ([1]; rat, plasma)	Insulin secretion capacity (% of control) ([2]; MIN 6 cells, 15 mM glucose)	also measured
HSEGTFTSDVSSYLEGQAAKEFIAWLVKGVEGVKALIDEILAA-NH2 [Example 11, [Ser8]-GLP-1(7-35)-GAm(31-44)-NH2]	99%	92%	83%	
HSEGTFTSDVSSYLEGQAAKEFIAWLVKGAKTVEGVKALIDEILAA [Example 18, [Ser8]-GLP-1(7-35)-GAm(28-44)]	99%	88%	139%	
HAEGTFTSDVSSYLEGQAAKEFIAWLVKGGPKALIDEILAA-NH2 [Example 21, GLP-1(7-35)-Gly-Pro-GAm(35-44)-NH2]	86%	53%	103%	
CC[C@H](C)[C@H](NC(=O)[C@H](C)NC(=O)CNC(=O)[C@H](Cc1ccccc1)NC(=O)[C@H](CC(N)=O)NC(=O)[C@H](CC(N)=O)NC(=O)[C@H](CO)NC(=O)[C@H](CO)NC(=O)[C@H](Cc1c[nH]cn1)NC(=O)[C@@H](NC(=O)[C@H](CC(C)C)NC(=O)[C@H](Cc1ccccc1)NC(=O)[C@H](CC(N)=O)NC(=O)[C@H](C)NC(=O)[C@H](CC(C)C)NC(=O)[C@H](CCCNC(=N)N)NC(=O)[C@H](CCC(N)=O)NC(=O)[C@@H](NC(=O)[C@H](C)NC(=O)[C@@H]1CSSC[C@H](NC(=O)[C@@H](N)CCCCN)C(=O)N[C@@H](CC(N)=O)C(=O)N[C@@H]([C@@H](C)O)C(=O)N[C@@H](C)C(=O)N[C@@H]([C@@H](C)O)C(=O)N1)[C@@H](C)O)C(C)C)C(=O)N[C@@H](CC(C)C)C(=O)N[C@@H](CO)C(=O)N[C@@H](CO)C(=O)N[C@H](C(=O)N[C@@H](CC(N)=O)C(=O)N[C@H](C(=O)NCC(=O)N[C@@H](CO)C(=O)N[C@@H](CC(N)=O)C(=O)N[C@H](C(=O)N[C@@H](Cc1ccc(O)cc1)C(N)=O)[C@@H](C)O)C(C)C)[C@@H](C)O [Comparative Example 16, Amylin(1-37)-NH2]				remaining at 0.5 h, 0.5 μmol/L ([3]; amylin, rat plasma, 0.5 μmol/L, 37° C., 0.5 hour, read-out: Remaining rate in plasma after 0.5 hour (%)): 43%; remaining at 2 h, 0.5 μmol/L ([3]; amylin, rat plasma, 0.5 μmol/L, 37° C., 2 hours, read-out: Remaining rate in plasma after 2 hours (%)): 15%; remaining at 8 h, 0.5 μmol/L ([3]; amylin, rat plasma, 0.5 μmol/L, 37° C., 8 hours, read-out: Remaining rate in plasma after 8 hours (%)): 0%; Remaining rate in plasma after 2 hours (%) ([3]; amylin, rat plasma, 0.5 μmol/L, 37° C., 2 hours): 15%
CC[C@H](C)[C@H](NC(=O)[C@H](Cc1ccccc1)NC(=O)[C@H](CCC(=O)O)NC(=O)[C@H](CCCCN)NC(=O)[C@H](C)NC(=O)[C@H](C)NC(=O)[C@H](CCC(N)=O)NC(=O)CNC(=O)[C@H](CCC(=O)O)NC(=O)[C@H](CC(C)C)NC(=O)[C@H](Cc1ccc(O)cc1)NC(=O)[C@H](CO)NC(=O)[C@H](CO)NC(=O)[C@@H](NC(=O)[C@H](CC(=O)O)NC(=O)[C@H](CO)NC(=O)[C@@H](NC(=O)[C@H](Cc1ccccc1)NC(=O)[C@@H](NC(=O)CNC(=O)[C@H](CCC(=O)O)NC(=O)[C@H](CO)NC(=O)[C@@H](N)Cc1c[nH]cn1)[C@@H](C)O)[C@@H](C)O)C(C)C)C(=O)N[C@@H](C)C(=O)N[C@@H](Cc1c[nH]c2ccccc12)C(=O)N[C@@H](CC(C)C)C(=O)N[C@H](C(=O)N[C@@H](CCCCN)C(=O)NCC(=O)N[C@@H](CC(C)C)C(=O)N[C@H](C(=O)N[C@@H](CC(=O)O)C(=O)N[C@@H](CCC(=O)O)C(=O)N[C@H](C(=O)N[C@@H](CC(C)C)C(=O)N[C@@H](C)C(=O)N[C@@H](C)C(N)=O)[C@@H](C)CC)[C@@H](C)CC)C(C)C [Example 3, [Ser8]-GLP-1(7-35)-GAm(37-44)-NH2]			82%	remaining at 8 h, 0.5 μmol/L [1, 4]: 113%; remaining at 48 h, 0.5 μmol/L [1, 5]: 95%
CC[C@H](C)[C@H](NC(=O)[C@H](Cc1ccccc1)NC(=O)[C@H](CCC(=O)O)NC(=O)[C@H](CCCCN)NC(=O)[C@H](C)NC(=O)[C@H](C)NC(=O)[C@H](CCC(N)=O)NC(=O)CNC(=O)[C@H](CCC(=O)O)NC(=O)[C@H](CC(C)C)NC(=O)[C@H](Cc1ccc(O)cc1)NC(=O)[C@H](CO)NC(=O)[C@H](CO)NC(=O)[C@@H](NC(=O)[C@H](CC(=O)O)NC(=O)[C@H](CO)NC(=O)[C@@H](NC(=O)[C@H](Cc1ccccc1)NC(=O)[C@@H](NC(=O)CNC(=O)[C@H](CCC(=O)O)NC(=O)[C@H](CO)NC(=O)[C@@H](N)Cc1c[nH]cn1)[C@@H](C)O)[C@@H](C)O)C(C)C)C(=O)N[C@@H](C)C(=O)N[C@@H](Cc1c[nH]c2ccccc12)C(=O)N[C@@H](CC(C)C)C(=O)N[C@H](C(=O)N[C@@H](CCCCN)C(=O)NCC(=O)N[C@@H](CC(C)C)C(=O)N[C@H](C(=O)N[C@@H](CC(=O)O)C(=O)N[C@@H](CCC(=O)O)C(=O)N[C@H](C(=O)N[C@@H](CC(C)C)C(=O)N[C@@H](C)C(=O)N[C@@H](C)C(=O)O)[C@@H](C)CC)[C@@H](C)CC)C(C)C [Example 20, [Ser8]-GLP-1(7-35)-GAm(37-44)]			98%	remaining at 48 h, 0.5 μmol/L [1, 5]: 79%; Remaining rate in plasma after 8 hours (%) ([1]; rat plasma, 0.5 μmol/L, 37° C., 8 hours, relative to 0 hour = 100%): 125%
HAEGTFTSDVSSYLEGQAAKEFIAWLVKGGPSGVKALIDEILAA-NH2 [Example 24, GLP-1(7-35)-Gly-Pro-Ser-GAm(33-44)-NH2]	90%	40%	123%	
[Ser8]-GLP-1(7-35)-GAm(1-46)-NH2 [Comparative Example 4, reference compound]			18%	Remaining rate in plasma after 48 hours (%) ([1]; rat plasma, 0.5 μmol/L, 37° C., 48 hours, relative to 0 hour = 100%): 105%; EC50 ([2]; MIN 6 cells, 15 mM glucose, concentration for 50% of maximum activity of native GLP-1 at 1000 pM, read-out: EC50 value (nM), insulin secretion capacity): > 1 nM; Insulin secretion capacity (activity) compared with native GLP-1, in words ([2]; MIN 6 cells, 30, 100, 300 or 1000 pM (FIG. 2, FIG. 3)): remarkably impaired; also recorded: remarkably decreased
HSEGTFTSDVSSYLEGQAAKEFIAWLVKGKALIDEILAA-NH2 [Example 4, [Ser8]-GLP-1(7-35)-GAm(35-44)-NH2]	77%	117%	115%	
CC[C@H](C)[C@H](NC(=O)CNC(=O)[C@H](CCCCN)NC(=O)[C@@H](NC(=O)[C@H](CC(C)C)NC(=O)[C@H](Cc1c[nH]c2ccccc12)NC(=O)[C@H](C)NC(=O)[C@@H](NC(=O)[C@H](Cc1ccccc1)NC(=O)[C@H](CCC(=O)O)NC(=O)[C@H](CCCCN)NC(=O)[C@H](C)NC(=O)[C@H](C)NC(=O)[C@H](CCC(N)=O)NC(=O)CNC(=O)[C@H](CCC(=O)O)NC(=O)[C@H](CC(C)C)NC(=O)[C@H](Cc1ccc(O)cc1)NC(=O)[C@H](CO)NC(=O)[C@H](CO)NC(=O)[C@@H](NC(=O)[C@H](CC(=O)O)NC(=O)[C@H](CO)NC(=O)[C@@H](NC(=O)[C@H](Cc1ccccc1)NC(=O)[C@@H](NC(=O)CNC(=O)[C@H](CCC(=O)O)NC(=O)[C@H](C)NC(=O)[C@@H](N)Cc1c[nH]cn1)[C@@H](C)O)[C@@H](C)O)C(C)C)[C@@H](C)CC)C(C)C)C(=O)N[C@@H](CC(=O)O)C(=O)N[C@@H](CCC(=O)O)C(=O)N[C@H](C(=O)N[C@@H](CC(C)C)C(N)=O)[C@@H](C)CC [Example 5, GLP-1(7-35)-GAm(38-42)-NH2]			112%	remaining at 8 h, 0.5 μmol/L [1, 4]: 73%; remaining at 48 h, 0.5 μmol/L [1, 5]: 83%
AKTVEGVKALIDEILAAKCNTATCATQRLANFLVHSSNNFGAILSSTNVGSNTY-NH2 (disulfide 19-24) [Example 30, GAm(28-44)-Amylin(1-37)-NH2]				remaining at 0.5 h, 0.5 μmol/L ([3]; rat, plasma): 88%; remaining at 2 h, 0.5 μmol/L ([3]; rat, plasma): 67%; remaining at 8 h, 0.5 μmol/L ([3]; rat, plasma): 9%

Reference: US20130123460A1, “PEPTIDE FOR IMPROVING BIOSTABILITY OF BIOACTIVE SUBSTANCE, AND BIOACTIVE SUBSTANCE HAVING IMPROVED BIOSTABILITY” (priority 2010, published 2013)
